Reference: ChEMBL document CHEMBL4330122, “Modified ribavirin analogues as antiviral agents against Junín virus” (Bioorg Med Chem Lett, 2019)

Legend:
[1] = Cytotoxicity against human A549 cells assessed as reduction in cell viability after 48 hrs by MTT assay; type: cell-based
in vitro [2] = conditions: monkey, Vero cells
Junin virus [3] = type: functional, organism-based; conditions: Mammarenavirus juninense, IV4454, A549, 48 h
[4] = Cytotoxicity against African green monkey Vero cells assessed as reduction in cell viability after 48 hrs by MTT assay; type: cell-based; conditions: chlorocebus sabaeus
Junin virus [5] = type: functional, organism-based; conditions: Mammarenavirus juninense, IV4454, Vero, 48 h
[6] = Solubility of the compound in water; type: physicochemical
in vitro [7] = conditions: human, A549 cells

Compound: CCCCn1cc(COC[C@H]2OC(O)[C@H](O)[C@@H](O)[C@H]2O)nn1 (stereo partly drawn)
- CC50 at 48 h [1]: > 1000 µM
- selectivity ratio (in vitro [2]): > 2.7
- EC50 (Junin virus [3]): 113 µM
- CC50 at 48 h [4]: > 1000 µM
- EC50 (Junin virus [5]): 371 µM
- solubility [6]: > 100 mg/mL
- selectivity ratio (in vitro [7]): > 8.9

Compound: CC(=O)OC[C@H]1O[C@@H](n2cc(COCC(COCc3cn([C@@H]4O[C@H](COC(C)=O)[C@@H](OC(C)=O)[C@H]4OC(C)=O)nn3)(COCc3cn([C@@H]4O[C@H](COC(C)=O)[C@@H](OC(C)=O)[C@H]4OC(C)=O)nn3)COCc3cn([C@@H]4O[C@H](COC(C)=O)[C@@H](OC(C)=O)[C@H]4OC(C)=O)nn3)nn2)[C@H](OC(C)=O)[C@@H]1OC(C)=O
- CC50 at 48 h [1]: > 1000 µM
- EC50 (Junin virus [3]): > 500 µM
- CC50 at 48 h [4]: > 1000 µM
- EC50 (Junin virus [5]): > 500 µM

Compound: CC1(C)O[C@H]2[C@H](OCc3cn(CC(Cn4cc(CO[C@@H]5O[C@H](Cn6cc(COC[C@H]7OC(O)[C@H](O)[C@@H](O)[C@H]7O)nn6)[C@H]6OC(C)(C)O[C@@H]56)nn4)(Cn4cc(CO[C@@H]5O[C@H](Cn6cc(COC[C@H]7OC(O)[C@H](O)[C@@H](O)[C@H]7O)nn6)[C@H]6OC(C)(C)O[C@@H]56)nn4)Cn4cc(CO[C@@H]5O[C@H](Cn6cc(COC[C@H]7OC(O)[C@H](O)[C@@H](O)[C@H]7O)nn6)[C@H]6OC(C)(C)O[C@@H]56)nn4)nn3)O[C@H](Cn3cc(COC[C@H]4OC(O)[C@H](O)[C@@H](O)[C@H]4O)nn3)[C@H]2O1 (stereo partly drawn)
- CC50 at 48 h [1]: > 1000 µM
- EC50 (Junin virus [3]): > 500 µM
- CC50 at 48 h [4]: > 1000 µM
- EC50 (Junin virus [5]): > 500 µM
- solubility [6]: > 100 mg/mL

Compound: OC[C@H]1O[C@@H](n2cc(COCC(COCc3cn([C@@H]4O[C@H](CO)[C@@H](O)[C@H]4O)nn3)(COCc3cn([C@@H]4O[C@H](CO)[C@@H](O)[C@H]4O)nn3)COCc3cn([C@@H]4O[C@H](CO)[C@@H](O)[C@H]4O)nn3)nn2)[C@H](O)[C@@H]1O
- CC50 at 48 h [1]: > 1000 µM
- EC50 (Junin virus [3]): > 500 µM
- CC50 at 48 h [4]: > 1000 µM
- EC50 (Junin virus [5]): > 500 µM

Compound: CC1(C)O[C@H]2[C@H](OCc3cn(CC(Cn4cc(CO[C@@H]5O[C@H](CN=[N+]=[N-])[C@H]6OC(C)(C)O[C@@H]56)nn4)(Cn4cc(CO[C@@H]5O[C@H](CN=[N+]=[N-])[C@H]6OC(C)(C)O[C@@H]56)nn4)Cn4cc(CO[C@@H]5O[C@H](CN=[N+]=[N-])[C@H]6OC(C)(C)O[C@@H]56)nn4)nn3)O[C@H](CN=[N+]=[N-])[C@H]2O1 (stereo partly drawn)
- CC50 at 48 h [1]: > 1000 µM
- EC50 (Junin virus [3]): > 500 µM
- CC50 at 48 h [4]: > 1000 µM
- EC50 (Junin virus [5]): > 500 µM

Compound: OC1O[C@H](COCc2cn(CC(Cn3cc(COC[C@H]4OC(O)[C@H](O)[C@@H](O)[C@H]4O)nn3)(Cn3cc(COC[C@H]4OC(O)[C@H](O)[C@@H](O)[C@H]4O)nn3)Cn3cc(COC[C@H]4OC(O)[C@H](O)[C@@H](O)[C@H]4O)nn3)nn2)[C@H](O)[C@H](O)[C@H]1O (stereo partly drawn)
- CC50 at 48 h [1]: > 1000 µM
- selectivity ratio (in vitro [2]): > 2.7
- EC50 (Junin virus [3]): 314 µM
- CC50 at 48 h [4]: > 1000 µM
- EC50 (Junin virus [5]): 371 µM
- solubility [6]: > 100 mg/mL
- selectivity ratio (in vitro [7]): > 3.2

Compound: CC1(C)O[C@@H]2[C@H](O1)[C@@H](Cn1cc(COC[C@H]3OC(O)[C@H](O)[C@@H](O)[C@H]3O)nn1)O[C@H]2n1cc(COCC(COCc2cn([C@@H]3O[C@H](Cn4cc(COC[C@H]5OC(O)[C@H](O)[C@@H](O)[C@H]5O)nn4)[C@H]4OC(C)(C)O[C@H]43)nn2)(COCc2cn([C@@H]3O[C@H](Cn4cc(COC[C@H]5OC(O)[C@H](O)[C@@H](O)[C@H]5O)nn4)[C@H]4OC(C)(C)O[C@H]43)nn2)COCc2cn([C@@H]3O[C@H](Cn4cc(COC[C@H]5OC(O)[C@H](O)[C@@H](O)[C@H]5O)nn4)[C@H]4OC(C)(C)O[C@H]43)nn2)nn1 (stereo partly drawn)
- CC50 at 48 h [1]: > 1000 µM
- selectivity ratio (in vitro [2]): > 8.6
- EC50 (Junin virus [3]): 119 µM
- CC50 at 48 h [4]: > 1000 µM
- EC50 (Junin virus [5]): 117 µM
- solubility [6]: > 100 mg/mL
- selectivity ratio (in vitro [7]): > 8.4

Compound: OC[C@@H](O)[C@H](O)[C@H](O)[C@@H](O)COCc1cn(CC(Cn2cc(COC[C@@H](O)[C@H](O)[C@H](O)[C@@H](O)CO)nn2)(Cn2cc(COC[C@@H](O)[C@H](O)[C@H](O)[C@@H](O)CO)nn2)Cn2cc(COC[C@@H](O)[C@H](O)[C@H](O)[C@@H](O)CO)nn2)nn1
- CC50 at 48 h [1]: > 1000 µM
- EC50 (Junin virus [3]): > 500 µM
- CC50 at 48 h [4]: > 1000 µM
- EC50 (Junin virus [5]): > 500 µM
- solubility [6]: > 100 mg/mL

Compound: CC(=O)OC[C@H]1O[C@@H](n2cc(CO)nn2)[C@H](OC(C)=O)[C@@H]1OC(C)=O
- CC50 at 48 h [1]: > 1000 µM
- selectivity ratio (in vitro [2]): > 7.7
- EC50 (Junin virus [3]): 322 µM
- CC50 at 48 h [4]: > 1000 µM
- EC50 (Junin virus [5]): 130 µM
- selectivity ratio (in vitro [7]): > 3.1

Compound: CC1(C)O[C@H]2[C@H](OCc3cn(CC(Cn4cc(CO[C@@H]5O[C@H](Cn6cc(COC[C@@H](O)[C@H](O)[C@H](O)[C@@H](O)CO)nn6)[C@H]6OC(C)(C)O[C@@H]56)nn4)(Cn4cc(CO[C@@H]5O[C@H](Cn6cc(COC[C@H](O)[C@@H](O)[C@@H](O)[C@H](O)CO)nn6)[C@H]6OC(C)(C)O[C@@H]56)nn4)Cn4cc(CO[C@@H]5O[C@H](Cn6cc(COC[C@H](O)[C@@H](O)[C@@H](O)[C@H](O)CO)nn6)[C@H]6OC(C)(C)O[C@@H]56)nn4)nn3)O[C@H](Cn3cc(COC[C@@H](O)[C@H](O)[C@H](O)[C@@H](O)CO)nn3)[C@H]2O1
- CC50 at 48 h [1]: > 1000 µM
- EC50 (Junin virus [3]): 314 µM
- CC50 at 48 h [4]: > 1000 µM
- EC50 (Junin virus [5]): > 500 µM
- solubility [6]: > 100 mg/mL
- selectivity ratio (in vitro [7]): > 3.2

Compound: CCCCn1cc(CO[C@@H]2O[C@H](CN=[N+]=[N-])[C@H]3OC(C)(C)O[C@@H]23)nn1
- CC50 at 48 h [1]: 525 µM
- selectivity ratio (in vitro [2]): 57.9
- EC50 (Junin virus [3]): 13.6 µM
- CC50 at 48 h [4]: 762 µM
- EC50 (Junin virus [5]): 13.2 µM
- selectivity ratio (in vitro [7]): 38.5

Compound: CCCCn1cc(COC[C@@H](O)[C@H](O)[C@H](O)[C@@H](O)CO)nn1
- CC50 at 48 h [1]: > 1000 µM
- EC50 (Junin virus [3]): > 500 µM
- CC50 at 48 h [4]: > 1000 µM
- EC50 (Junin virus [5]): > 500 µM
- solubility [6]: > 100 mg/mL

Compound: OCc1cn([C@@H]2O[C@H](CO)[C@@H](O)[C@H]2O)nn1
- CC50 at 48 h [1]: > 1000 µM
- selectivity ratio (in vitro [2]): > 4.7
- EC50 (Junin virus [3]): 50.7 µM
- CC50 at 48 h [4]: > 1000 µM
- EC50 (Junin virus [5]): 215 µM
- selectivity ratio (in vitro [7]): > 19.7

Compound: CCCCn1cc(CO[C@@H]2O[C@H](CO)[C@H]3OC(C)(C)O[C@@H]23)nn1
- CC50 at 48 h [1]: > 1000 µM
- selectivity ratio (in vitro [2]): > 17.5
- EC50 (Junin virus [3]): 55.9 µM
- CC50 at 48 h [4]: > 1000 µM
- EC50 (Junin virus [5]): 57.2 µM
- selectivity ratio (in vitro [7]): > 17.9

Compound: CC1(C)O[C@@H]2[C@H](O1)[C@@H](CO)O[C@H]2n1cc(COCC(COCc2cn([C@@H]3O[C@H](CO)[C@H]4OC(C)(C)O[C@H]43)nn2)(COCc2cn([C@@H]3O[C@H](CO)[C@H]4OC(C)(C)O[C@H]43)nn2)COCc2cn([C@@H]3O[C@H](CO)[C@H]4OC(C)(C)O[C@H]43)nn2)nn1
- CC50 at 48 h [1]: > 1000 µM
- EC50 (Junin virus [3]): > 500 µM
- CC50 at 48 h [4]: > 1000 µM
- EC50 (Junin virus [5]): > 500 µM

Compound: CCCCn1cc(CO[C@@H]2O[C@H](Cn3cc(COC[C@H]4OC(O)[C@H](O)[C@@H](O)[C@H]4O)nn3)[C@H]3OC(C)(C)O[C@@H]23)nn1 (stereo partly drawn)
- CC50 at 48 h [1]: > 1000 µM
- selectivity ratio (in vitro [2]): > 45.2
- EC50 (Junin virus [3]): 20.6 µM
- CC50 at 48 h [4]: > 1000 µM
- EC50 (Junin virus [5]): 22.1 µM
- solubility [6]: > 100 mg/mL
- selectivity ratio (in vitro [7]): > 48.5

Compound: CC1(C)O[C@H]2[C@H](OCc3cn(CC(Cn4cc(CO[C@@H]5O[C@H](CO)[C@H]6OC(C)(C)O[C@@H]56)nn4)(Cn4cc(CO[C@@H]5O[C@H](CO)[C@H]6OC(C)(C)O[C@@H]56)nn4)Cn4cc(CO[C@@H]5O[C@H](CO)[C@H]6OC(C)(C)O[C@@H]56)nn4)nn3)O[C@H](CO)[C@H]2O1
- CC50 at 48 h [1]: 209 µM
- selectivity ratio (in vitro [2]): 6.5
- EC50 (Junin virus [3]): 33.4 µM
- CC50 at 48 h [4]: 233 µM
- EC50 (Junin virus [5]): 35.5 µM
- selectivity ratio (in vitro [7]): 6.2

Compound: NC(=O)c1ncn([C@@H]2O[C@H](CO)[C@@H](O)[C@H]2O)n1 [RIBAVIRIN]
- CC50 at 48 h [1]: 307 µM
- selectivity ratio (in vitro [2]): > 21.6
- EC50 (Junin virus [3]): 19.2 µM
- CC50 at 48 h [4]: > 400 µM
- selectivity ratio (in vitro [7]): 15.9

Compound: CC1(C)O[C@@H]2[C@H](O1)[C@@H](CO)O[C@H]2n1cc(CO)nn1
- CC50 at 48 h [1]: > 1000 µM
- selectivity ratio (in vitro [2]): > 19.5
- EC50 (Junin virus [3]): 86.4 µM
- CC50 at 48 h [4]: > 1000 µM
- EC50 (Junin virus [5]): 51.3 µM
- selectivity ratio (in vitro [7]): > 11.6

Compound: CCCCn1cc(CO[C@@H]2O[C@H](Cn3cc(COC[C@@H](O)[C@H](O)[C@H](O)[C@@H](O)CO)nn3)[C@H]3OC(C)(C)O[C@@H]23)nn1
- CC50 at 48 h [1]: > 1000 µM
- selectivity ratio (in vitro [2]): > 4.8
- EC50 (Junin virus [3]): 389 µM
- CC50 at 48 h [4]: > 1000 µM
- EC50 (Junin virus [5]): 209 µM
- solubility [6]: > 100 mg/mL
- selectivity ratio (in vitro [7]): > 2.6

Compound: CC1(C)O[C@@H]2[C@H](O1)[C@@H](Cn1cc(COC[C@@H](O)[C@H](O)[C@H](O)[C@@H](O)CO)nn1)O[C@H]2n1cc(COCC(COCc2cn([C@@H]3O[C@H](Cn4cc(COC[C@@H](O)[C@H](O)[C@H](O)[C@@H](O)CO)nn4)[C@H]4OC(C)(C)O[C@H]43)nn2)(COCc2cn([C@@H]3O[C@H](Cn4cc(COC[C@H](O)[C@@H](O)[C@@H](O)[C@H](O)CO)nn4)[C@H]4OC(C)(C)O[C@H]43)nn2)COCc2cn([C@@H]3O[C@H](Cn4cc(COC[C@H](O)[C@@H](O)[C@@H](O)[C@H](O)CO)nn4)[C@H]4OC(C)(C)O[C@H]43)nn2)nn1
- CC50 at 48 h [1]: > 1000 µM
- EC50 (Junin virus [3]): > 500 µM
- CC50 at 48 h [4]: > 1000 µM
- EC50 (Junin virus [5]): > 500 µM
- solubility [6]: > 100 mg/mL
